From patent publication US8937066B2, “Amino derivatives of dihydro-1,3,5-triazine used in the treatment of ischemia and/or reperfusion related diseases” (Poxel, priority 2009, dated 2015)

Assays:
[1] = system: human immortalized microvascular dermal endothelial cells HMEC-1; test: Mitochondrial membrane potential (TMRM, confocal microscopy) after ischemia/reperfusion; format: cell-based; details: 10 mM for 30 min; for mitochondrial membrane potential after reperfusion: then 60 min ischemia and 90/120 min reperfusion
Experimental: The objective of this study is to evaluate the protective effect of the compound E 008 on vascular injury due to ischemia/reperfusion, by measuring the effect of E 008 on loss of mitochondrial membrane potential induced by ischemia/reperfusion.
The line of human immortalized microvascular dermal endothelial cells HMEC-1 was used.
The cells were treated according to the following scheme: • control group: no treatment, followed by ischemia of 60 min and reperfusion of 120 min. • metformin group: incubation with metformin at a concentration of 10 mM for 30 min, followed by ischemia of 60 min and reperfusion of 120 min. • E 008 group: incubation with the compound E 008 at a concentration of 10 mM for 30 min followed by ischemia of 60 min and reperfusion of 120 min. Measurement of Mitochondrial Membrane Potential
In order to measure the mitochondrial potential, the cells were incubated, throughout the above treatment, with the fluorescent probe tetramethylrhodamine methyl ester (TMRM) at a concentration of 30 nM.
They were analyzed in confocal microscopy before treatment, after 60 min of ischemia, after 90 min of reperfusion and after 120 min of reperfusion (FIG. 1).

[2] = system: complex I of the respiratory chain of endothelial cells; test: ROS production by complex I of the respiratory chain; format: cell-based; details: by inhibiting reverse electron flow
[3] = system: infarct size / area at risk; test: Model of myocardial infarction in the rabbit (30 min coronary occlusion, 4 h reperfusion); format: in vivo; details: for AN (area of necrosis) / AN/AR / AN/LV: group mean (extent of values)
Experimental: Male New Zealand albino rabbits weighing between 2.2 and 2.5 kg were anesthetized by intramuscular injection of xylazine (5 mg/kg) and ketamine (50 mg/kg). An intravenous infusion of a mixture of xylazine (20 to 50 μg/kg/min) and ketamine (40 to 100 μg/kg/min) was maintained throughout the test.
After a median cervical incision, a tracheotomy was performed and the animals were ventilated with ambient air. A cannula was inserted in the right internal jugular vein for administration of the medicinal products and fluids and in the left carotid artery for measurement of blood pressure. After an intravenous bolus administration of fentanyl ([…]), a left thoracotomy was performed at the level of the fourth left intercostal space. The pericardium was opened and the heart was exposed. A 3.0 suture thread attached to a small curved needle was passed around a marginal branch of the left circumflex coronary artery. The two ends of the thread were passed through a small vinyl tube to form a collar that could be tightened for occluding and released for reperfusing the artery. Body temperature was monitored via an intraperitoneal thermometer and kept constant by means of a heating block. The heart rate and arterial pressure were monitored continuously on a Gould recorder (Gould Inc., Cleveland, Ohio).
After surgery, a period of stabilization of 15 minutes was observed.
The rabbits are randomly distributed into 4 groups. All the animals undergo a prolonged occlusion of 30 minutes of the coronary artery, followed by 4 hours of reperfusion. Five minutes before reperfusion, the rabbits receive an intravenous injection of either: • a vehicle (volume corresponding to dose 1 or 2 of E 008) (Control, C), • E 008 at dose 1, • E 008 at dose 2, • of ciclosporin A (CsA) at 10 mg/kg.
The sample size is 8 to 10 animals per group. In these groups, the hearts were collected at the end of the period of 4 hours of reperfusion for subsequent evaluation of infarct size.
After 4 hours of reperfusion, the coronary artery was briefly reoccluded and 0.5 mg/kg of Uniperse blue pigment (Ciba-Geigy®, Hawthorne N.Y.) was injected intravenously for delimiting the area at risk in viva With this technique, the previously nonischemic myocardium appears blue, whereas the previously ischemic myocardium (area at risk) remains unstained.
The anesthetized rabbits were then euthanized by intravenous injection of pentobarbital. The heart was excised and cut into transverse slices with thickness of 5 to 6 mm, parallel to the atrioventricular sulcus. After removing the tissue of the right ventricle, each slice was weighed. The basal surface of each slice was photographed for later measurement of the area at risk. Each slice was then incubated for 15 minutes in a 1% solution of triphenyltetrazolium chloride at 37° C. for differentiating the myocardial zones that were infarcted (pale) and viable (brick red). The slices were then photographed again. Magnified projections of these slices were traced for determining the boundaries of the area at risk (AR) and of the area of necrosis (AN). The extent of these areas at risk and of necrosis was quantified by planimetry by computer and corrected relative to the weight of the tissue slices. The total weights of the area at risk and of the area of necrosis were then calculated and expressed in grams and as a percentage of total left ventricle (LV) and of the weight of the area at risk, respectively. […] Evaluation of infarct size was performed blind.
The results are presented in the following table in the form of value averaged for all the animals of a group, the figure in parentheses representing the extent of the values measured for the different animals.

[4] = E 008 1 mg/kg i.v. 5 min before reperfusion
[5] = E 008 5 mg/kg i.v. 5 min before reperfusion

Compound	mitochondrial membrane potential after reperfusion [1]	production of ROS by complex I of the respiratory chain [2]	protective effect against loss of membrane potential compared with metformin ([1]; then 60 min ischemia and 120 min reperfusion)	AN (area of necrosis) [3, 4]	AN/AR [3, 4]	AN/LV [3, 4]	protection in the model of myocardial infarction ([3]; E 008 5 mg/kg i.v.)	AN (area of necrosis) [3, 5]	AN/AR [3, 5]	AN/LV [3, 5]	infarct size relative to ciclosporin A ([3]; E 008 5 mg/kg i.v. vs CsA 10 mg/kg)	infarct size relative to the control ([3]; i.v. 5 min before reperfusion, dose not given)
CN(C)C(=N)N=C(N)N [metformin, reference compound]	protected from the damage due to reperfusion											
CC1N=C(N)NC(N(C)C)=N1 (stereo not shown) [E 008]	protected from the damage due to reperfusion	reduce the production of ROS	better protective effect	0.31 (±0.15) g	33.9 (±12.2) %	11.8 (±5) %	significant protection	0.21 (±0.09) g	29.4 (±10.3) %	8.3 (±3.7) %	reduction in infarct size relative to ciclosporin A	significant reduction in infarct size
